Measurements from patent publication US20250223268A1, “4-Methylsulfonylbenzamide Compound, Preparation Method, Herbicidal Composition And Use” (Jiangsu Flag Chemical Industry Co., Ltd., priority 2022, published 2025).

Assays:
Experiment in all cases: Greenhouse herbicidal activity assay, post-emergence
Type in all cases: in vivo
Conditions in all cases: Post-emergence test, rate 150 g a.i./hm^2; grade by fresh weight inhibition rate
Cyperus iria = test system: Cyperus iria
In short: (§1)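 Scores reflect fresh weight inhibition assessed 14-21 days after treatment, with grade A meaning ≥80% to 100% and grade E meaning <20%. Plants, raised in nutrient-soil pots inside a growth chamber, were sprayed on the foliage at the 3-6 leaf stage.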

Leptochloa chinensis = test system: Leptochloa chinensis
In short: as §1

Eclipta prostrata = test system: Eclipta prostrata
In short: as §1

Digitaria sanguinalis = test system: Digitaria sanguinalis
In short: as §1

Echinochloa crusgalli = test system: Echinochloa crusgalli
In short: as §1

| Structure (SMILES) | Control efficacy grade, Cyperus iria (Cyperus iria) | Control efficacy grade, Leptochloa chinensis (Leptochloa chinensis) | Control efficacy grade, Eclipta prostrata (Eclipta prostrata) | Control efficacy grade, Digitaria sanguinalis (Digitaria sanguinalis) | Control efficacy grade, Echinochloa crusgalli (Echinochloa crusgalli) |
| --- | --- | --- | --- | --- | --- |
| Cn1ncnc1NC(=O)c1ccc(S(C)(=O)=O)c([S+]([O-])C2CCCC2)c1Cl (racemic) [Compound 2-43] | A (Fresh weight inhibition rate≥80% to 100%) | A (Fresh weight inhibition rate≥80% to 100%) | A (Fresh weight inhibition rate≥80% to 100%) | A (Fresh weight inhibition rate≥80% to 100%) | A (Fresh weight inhibition rate≥80% to 100%) |
| C=CCSc1c(S(C)(=O)=O)ccc(C(=O)Nc2nnnn2C)c1Cl [Compound 1-67] | A (Fresh weight inhibition rate≥80% to 100%) | A (Fresh weight inhibition rate≥80% to 100%) | A (Fresh weight inhibition rate≥80% to 100%) | A (Fresh weight inhibition rate≥80% to 100%) | A (Fresh weight inhibition rate≥80% to 100%) |
| CCCC[S+]([O-])c1c(S(C)(=O)=O)ccc(C(=O)Nc2nnc(CC)o2)c1Cl (racemic) [Compound 3-394] | A (Fresh weight inhibition rate≥80% to 100%) | A (Fresh weight inhibition rate≥80% to 100%) | A (Fresh weight inhibition rate≥80% to 100%) | A (Fresh weight inhibition rate≥80% to 100%) | A (Fresh weight inhibition rate≥80% to 100%) |
| CCc1nnc(NC(=O)c2ccc(S(C)(=O)=O)c([S+]([O-])C(C)CC)c2Cl)o1 (mixture of isomers) [Compound 3-401] | A (Fresh weight inhibition rate≥80% to 100%) | A (Fresh weight inhibition rate≥80% to 100%) | A (Fresh weight inhibition rate≥80% to 100%) | A (Fresh weight inhibition rate≥80% to 100%) | A (Fresh weight inhibition rate≥80% to 100%) |
| CCCC[S+]([O-])c1c(S(C)(=O)=O)ccc(C(=O)Nc2nnco2)c1Cl (racemic) [Compound 3-278] | A (Fresh weight inhibition rate≥80% to 100%) | A (Fresh weight inhibition rate≥80% to 100%) | A (Fresh weight inhibition rate≥80% to 100%) | A (Fresh weight inhibition rate≥80% to 100%) | A (Fresh weight inhibition rate≥80% to 100%) |
| CCc1nnc(NC(=O)c2ccc(S(C)(=O)=O)c([S+]([O-])CC(C)C)c2Cl)o1 (racemic) [Compound 3-410] | A (Fresh weight inhibition rate≥80% to 100%) | A (Fresh weight inhibition rate≥80% to 100%) | A (Fresh weight inhibition rate≥80% to 100%) | A (Fresh weight inhibition rate≥80% to 100%) | C (Fresh weight inhibition rate≥40% to <60%) |
| CS(=O)(=O)c1ccc(C(=O)Nc2nnc(C3CC3)o2)c(Cl)c1[S+]([O-])CC1CC1 (racemic) [Compound 3-647] | A (Fresh weight inhibition rate≥80% to 100%) | A (Fresh weight inhibition rate≥80% to 100%) | A (Fresh weight inhibition rate≥80% to 100%) | A (Fresh weight inhibition rate≥80% to 100%) | A (Fresh weight inhibition rate≥80% to 100%) |
| Cn1nnnc1NC(=O)c1ccc(S(C)(=O)=O)c(SCC(F)(F)F)c1Cl [Compound 1-52] | A (Fresh weight inhibition rate≥80% to 100%) | A (Fresh weight inhibition rate≥80% to 100%) | A (Fresh weight inhibition rate≥80% to 100%) | A (Fresh weight inhibition rate≥80% to 100%) | A (Fresh weight inhibition rate≥80% to 100%) |
| C=CC[S+]([O-])c1c(S(C)(=O)=O)ccc(C(=O)Nc2nnc(CC)o2)c1Cl (racemic) [Compound 3-455] | A (Fresh weight inhibition rate≥80% to 100%) | A (Fresh weight inhibition rate≥80% to 100%) | A (Fresh weight inhibition rate≥80% to 100%) | A (Fresh weight inhibition rate≥80% to 100%) | A (Fresh weight inhibition rate≥80% to 100%) |
| CCc1nnc(NC(=O)c2ccc(S(C)(=O)=O)c(SCC(F)(F)F)c2Cl)o1 [Compound 3-439] | A (Fresh weight inhibition rate≥80% to 100%) | A (Fresh weight inhibition rate≥80% to 100%) | A (Fresh weight inhibition rate≥80% to 100%) | A (Fresh weight inhibition rate≥80% to 100%) | A (Fresh weight inhibition rate≥80% to 100%) |
| CS(=O)(=O)c1ccc(C(=O)Nc2nnco2)c(Cl)c1[S+]([O-])CCCl (racemic) [Compound 3-379] | A (Fresh weight inhibition rate≥80% to 100%) | A (Fresh weight inhibition rate≥80% to 100%) | A (Fresh weight inhibition rate≥80% to 100%) | A (Fresh weight inhibition rate≥80% to 100%) | A (Fresh weight inhibition rate≥80% to 100%) |
| Cc1nnc(NC(=O)c2ccc(S(C)(=O)=O)c([S+]([O-])C3CCCCC3)c2Cl)o1 (racemic) [Compound 3-93] | A (Fresh weight inhibition rate≥80% to 100%) | A (Fresh weight inhibition rate≥80% to 100%) | A (Fresh weight inhibition rate≥80% to 100%) | A (Fresh weight inhibition rate≥80% to 100%) | A (Fresh weight inhibition rate≥80% to 100%) |
| Cc1nnc(NC(=O)c2ccc(S(C)(=O)=O)c(SCC(C)C)c2Cl)o1 [Compound 3-27] | A (Fresh weight inhibition rate≥80% to 100%) | A (Fresh weight inhibition rate≥80% to 100%) | A (Fresh weight inhibition rate≥80% to 100%) | A (Fresh weight inhibition rate≥80% to 100%) | A (Fresh weight inhibition rate≥80% to 100%) |
| C=CC[S+]([O-])c1c(S(C)(=O)=O)ccc(C(=O)Nc2nnco2)c1Cl (racemic) [Compound 3-339] | A (Fresh weight inhibition rate≥80% to 100%) | A (Fresh weight inhibition rate≥80% to 100%) | A (Fresh weight inhibition rate≥80% to 100%) | A (Fresh weight inhibition rate≥80% to 100%) | A (Fresh weight inhibition rate≥80% to 100%) |
| Cn1nnnc1NC(=O)c1ccc(S(C)(=O)=O)c([S+]([O-])C2CCCCC2)c1Cl (racemic) [Compound 1-48] | A (Fresh weight inhibition rate≥80% to 100%) | A (Fresh weight inhibition rate≥80% to 100%) | A (Fresh weight inhibition rate≥80% to 100%) | A (Fresh weight inhibition rate≥80% to 100%) | A (Fresh weight inhibition rate≥80% to 100%) |
| Cc1nnc(NC(=O)c2ccc(S(C)(=O)=O)c([S+]([O-])C3CCCC3)c2Cl)o1 (racemic) [Compound 3-88] | A (Fresh weight inhibition rate≥80% to 100%) | A (Fresh weight inhibition rate≥80% to 100%) | A (Fresh weight inhibition rate≥80% to 100%) | A (Fresh weight inhibition rate≥80% to 100%) | A (Fresh weight inhibition rate≥80% to 100%) |
| Cn1ncnc1NC(=O)c1ccc(S(C)(=O)=O)c([S+]([O-])CC2CC2)c1Cl (racemic) [Compound 2-28] | A (Fresh weight inhibition rate≥80% to 100%) | A (Fresh weight inhibition rate≥80% to 100%) | A (Fresh weight inhibition rate≥80% to 100%) | A (Fresh weight inhibition rate≥80% to 100%) | A (Fresh weight inhibition rate≥80% to 100%) |
| CS(=O)(=O)c1ccc(C(=O)Nc2nnco2)c(Cl)c1SCC(F)F [Compound 3-328] | A (Fresh weight inhibition rate≥80% to 100%) | A (Fresh weight inhibition rate≥80% to 100%) | A (Fresh weight inhibition rate≥80% to 100%) | A (Fresh weight inhibition rate≥80% to 100%) | A (Fresh weight inhibition rate≥80% to 100%) |
| CCCCSc1c(S(C)(=O)=O)ccc(C(=O)Nc2nnco2)c1Cl [Compound 3-277] | A (Fresh weight inhibition rate≥80% to 100%) | A (Fresh weight inhibition rate≥80% to 100%) | A (Fresh weight inhibition rate≥80% to 100%) | C (Fresh weight inhibition rate≥40% to <60%) | A (Fresh weight inhibition rate≥80% to 100%) |
